Assay results: US6362369B1, “Phthalic acid diamide derivatives fluorine-containing aniline compounds as starting material, agricultural and horticultural insecticides, and a method for application of the insecticides” (Nihon Nohyaku Co., Ltd., priority 1997, dated 2002)

Assays:
Type in all cases: in vivo
[1] = system: diamondback moth (Plutella xylostella); assay: Insecticidal effect on diamondback moth (Test Example 1); settings: diamondback moth; judged by the criterion of Test Example 1
Outline: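 Read-out was mortality from hatched-insect counts taken 6 days after the egg-bearing cabbage seedling was immersed, graded by set criteria. Seedlings were air-dried and kept at 25° C after treatment. Groups of 10 insects, in triplicate.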

[2] = system: common cutworm (Spodoptera Litura); assay: Insecticidal effect on common cutworm (Test Example 2); settings: 500 ppm, cabbage leaf dip, second-instar larvae of common cutworm, 8 days after inoculation, 25° C.
Outline: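 Second-instar larvae placed in 9 cm Petri dishes with air-dried treated material, held at 25 °C. Dead and live insects counted 8 days after inoculation; mortality calculated and scored against a set criterion. Triplicate groups of 10 insects.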

[3] = system: rice leafroller (Cnaphalocrocis medinalis); assay: Insecticidal effect on rice leafroller (Test Example 3); settings: 500 ppm, rice lamina dip, third-instar larvae of rice leafroller, 4 days after inoculation, 25° C., humidity 70%
Outline: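 Groups of 10 third-instar larvae, in triplicate, are placed on air-dried lamina resting on wet filter paper. Incubation runs four days at 25° C with 70% humidity before survivors and dead are tallied.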

CC(C)(C)NC(=O)c1c(I)cccc1C(=O)Nc1cc2c(cc1Cl)OC(F)(F)C(F)(F)O2 [compound 1645]
A (100): Insecticidal effect (Test Example 1), judged from mortality [1] | Insecticidal effect (Test Example 2), judged from mortality [2] | Insecticidal effect (Test Example 3), judged from mortality [3]

Cc1cc(C(F)(F)C(F)(F)F)ccc1NC(=O)c1cccc(I)c1C(=O)NC(C)(C)CCl [compound 1646]
A (100): Insecticidal effect (Test Example 1), judged from mortality [1] | Insecticidal effect (Test Example 2), judged from mortality [2] | Insecticidal effect (Test Example 3), judged from mortality [3]

Cc1cc(C(F)(F)C(F)(F)F)ccc1NC(=O)c1cccc(I)c1C(=O)NC(C)(C)CBr [compound 1647]
A (100): Insecticidal effect (Test Example 1), judged from mortality [1] | Insecticidal effect (Test Example 2), judged from mortality [2] | Insecticidal effect (Test Example 3), judged from mortality [3]

Cc1cc(C(F)(F)C(F)(F)F)ccc1NC(=O)c1cccc(Cl)c1C(=O)NC(C)(C)C#Cc1ccc(Br)cn1 [compound 1649]
A (100): Insecticidal effect (Test Example 1), judged from mortality [1] | Insecticidal effect (Test Example 2), judged from mortality [2] | Insecticidal effect (Test Example 3), judged from mortality [3]

Cc1cc(C(F)(F)C(F)(F)F)ccc1NC(=O)c1cccc(Cl)c1C(=O)NC(C)(C)C#Cc1ccc(F)cc1F [compound 1650]
A (100): Insecticidal effect (Test Example 1), judged from mortality [1] | Insecticidal effect (Test Example 2), judged from mortality [2] | Insecticidal effect (Test Example 3), judged from mortality [3]

Cc1cc(C(F)(F)C(F)(F)F)ccc1NC(=O)c1cccc(Cl)c1C(=O)NC(C)CF (stereo not drawn) [compound 1651]
A (100): Insecticidal effect (Test Example 1), judged from mortality [1] | Insecticidal effect (Test Example 2), judged from mortality [2] | Insecticidal effect (Test Example 3), judged from mortality [3]

Cc1cc(C(F)(F)C(F)(F)F)ccc1NC(=O)c1cccc(Cl)c1C(=O)NC(C)CBr (stereo not drawn) [compound 1652]
A (100): Insecticidal effect (Test Example 1), judged from mortality [1] | Insecticidal effect (Test Example 2), judged from mortality [2] | Insecticidal effect (Test Example 3), judged from mortality [3]

Cc1cc(C(F)(F)C(F)(F)F)c(Cl)cc1NC(=O)c1cccc(I)c1C(=O)NC(C)C [compound 1653]
A (100): Insecticidal effect (Test Example 1), judged from mortality [1] | Insecticidal effect (Test Example 2), judged from mortality [2] | Insecticidal effect (Test Example 3), judged from mortality [3]

Cc1cc(C(F)(F)C(F)(F)F)c(Cl)cc1NC(=O)c1cccc(I)c1C(=O)NC(C)(C)C [compound 1654]
A (100): Insecticidal effect (Test Example 1), judged from mortality [1] | Insecticidal effect (Test Example 2), judged from mortality [2] | Insecticidal effect (Test Example 3), judged from mortality [3]

CCc1cc(C(F)(C(F)(F)F)C(F)(F)F)ccc1NC(=O)c1cccc(I)c1C(=O)NC(C)C [compound 1714]
A (100): Insecticidal effect (Test Example 1), judged from mortality [1] | Insecticidal effect (Test Example 2), judged from mortality [2] | Insecticidal effect (Test Example 3), judged from mortality [3]

COc1cc(C(F)(C(F)(F)F)C(F)(F)F)ccc1NC(=O)c1cccc(I)c1C(=O)NC(C)C [compound 1715]
A (100): Insecticidal effect (Test Example 1), judged from mortality [1] | Insecticidal effect (Test Example 2), judged from mortality [2] | Insecticidal effect (Test Example 3), judged from mortality [3]

Cc1cc(C(F)(C(F)(F)F)C(F)(F)F)cc(C)c1NC(=O)c1cccc(I)c1C(=O)NC(C)C [compound 1716]
A (100): Insecticidal effect (Test Example 1), judged from mortality [1] | Insecticidal effect (Test Example 2), judged from mortality [2] | Insecticidal effect (Test Example 3), judged from mortality [3]

Cc1cc(C(F)(F)C(F)(F)F)cc(C)c1NC(=O)c1cccc(I)c1C(=O)NC(C)C [compound 1717]
A (100): Insecticidal effect (Test Example 1), judged from mortality [1] | Insecticidal effect (Test Example 2), judged from mortality [2] | Insecticidal effect (Test Example 3), judged from mortality [3]

CC(C)NC(=O)c1c(I)cccc1C(=O)Nc1ccc(C(F)(C(F)(F)F)C(F)(F)F)cc1Cl [compound 1722]
A (100): Insecticidal effect (Test Example 1), judged from mortality [1] | Insecticidal effect (Test Example 2), judged from mortality [2] | Insecticidal effect (Test Example 3), judged from mortality [3]
